Here are results for 19 compounds from patent US20230116602A1, “MCL1 INHIBITORS AND USES THEREOF” (California Institute of Technology, priority 2019, published 2023).

Bounds are passed on as bounds.

Assay [1] deals with drug-sensitive cell lines of Table 3. The assay can be described thus: Cell line growth retardation assay, sensitive cohort. The settings on record: for IC50: Homo sapiens, 144 h, arithmetic mean of IC50s over the sensitive cohort of Table 3, 6 days growth, read-out: AvgSen IC50; for Fold Diff: average IC50 of resistant cohort divided by average IC50 of sensitive cohort. In kind it is cell-based, Human. Here is the method: (§1) Cells were seeded at densities of 1,000-5,000 cells per well in 48-well tissue culture plates. After a 24 h rest period, cells were treated with compound at 10 μM, 1 μM, […], 0.08 μM, 0.016 μM, and 0.0032 μM. A group of cells were treated with the vehicle in which the compound was prepared and served as a control. Prior to treatment, cells were counted and this count was used as a baseline for the calculation of growth inhibition. The cells were grown in the presence of compounds for 6 days and were counted on day 6. All cell counting was performed using a Synentec Cellavista plate imager. Growth inhibition was calculated as a ratio of cell population doublings in the presence of compound versus the absence of compound. […] IC50 values for each compound were calculated by fitting curves to data points from each dose-response assay using the Proc NLIN function in SAS for Windows version 9.2 (SAS Institute, Inc.).
(§2) Human cancer cell lines were grouped as “sensitive” or “resistant” to MCL1 inhibition based on whether their growth was retarded by AMG-176 (i.e., (1′S,11R,12S,14E,16S,16aR,18aR)-6′-Chloro-3′,4′,12,13,16,16a,17,18,18a,19-decahydro-16-methoxy-11,12-dimethyl-,Spiro[5,7-etheno-1H,11H-cyclobut[i][1,4]oxazepino[3,4-f][1,2,7]thiadiazacyclohexadecine-2(3H),1′(2′H)-naphthalen]-8(9H)-one 10,10-dioxide) or MIK665 (i.e., (R)-2-((5-(3-chloro-2-methyl-4-(2-(4-methylpiperazin-1-yl)ethoxy)phenyl)-6-(4-fluorophenyl)thieno[2,3-d]pyrimidin-4-yl)oxy)-3-(2-((2-(2-methoxyphenyl)pyrimidin-4-yl)methoxy)phenyl)propanoic acid) (data not shown; see Table 3). These sensitive and resistant cohorts were interrogated for response to each compound, and IC50S were calculated for each cell line using the same technique described above. Average IC50S for the sensitive (“AvgSen IC50”) and resistant (“AvgRes IC50”) cohorts were calculated as arithmetic means of the group, and fold differences (“Fold Diff”) between the resistant and sensitive cohorts were calculated by diving the average IC50 for the resistant cohort by the average IC50 for the sensitive cohort. “A” represents an IC50 of 1 μM or less, “B” represents an IC50 of greater than 1 μM to 5 μM, “C” represents an IC50 of greater than 5 μM, “+” represents a fold difference of 10 or more, and “−” represents a fold difference less than 10.

The target in assay [2] is MCL1 (Homo sapiens, UniProt Q07820). Kind of assay: MCL1 affinity assay (competition binding, qPCR readout). The settings on record: recombinant MCL1, 11-point 3-fold dilution series. How it is done: Recombinant MCL1, BCL2 and BCXL proteins were prepared in either an E. coli host derived from the BL21 strain or in HEK-293 cells. The recombinant proteins were subsequently tagged with DNA for qPCR detection. Streptavidin-coated magnetic beads were treated for 30 minutes at room temperature with the respective biotinylated peptide ligands for each recombinant protein to generate affinity resins for the assays. The liganded beads were blocked with excess biotin and washed with blocking buffer (SeaBlock (Pierce), 1% BSA, 0.05% Tween 20, 1 mM DTT) to remove unbound ligand and to reduce nonspecific binding. Binding reactions were assembled by combining recombinant protein, liganded affinity beads, and test compounds in 1× binding buffer (20% SeaBlock, 0.17×PBS, 0.05% Tween 20, 6 mM DTT). Test compounds were prepared as 111X stocks in 100% DMSO. The compounds were then diluted directly into the assays such that the final concentration of DMSO was 0.9%. The assay plates were incubated at room temperature with shaking for 1 hour and the affinity beads were washed with wash buffer (1×PBS, 0.05% Tween 20). The beads were then re-suspended in elution buffer (1×PBS, 0.05% Tween 20, 0.5 μM non-biotinylated affinity ligand) and incubated at room temperature with shaking for 30 minutes. The recombinant protein concentration in the eluates was measured by qPCR. Kds were determined using an 11-point 3-fold compound dilution series with three DMSO control points.
MCL1, sequence (Q07820 whole entry): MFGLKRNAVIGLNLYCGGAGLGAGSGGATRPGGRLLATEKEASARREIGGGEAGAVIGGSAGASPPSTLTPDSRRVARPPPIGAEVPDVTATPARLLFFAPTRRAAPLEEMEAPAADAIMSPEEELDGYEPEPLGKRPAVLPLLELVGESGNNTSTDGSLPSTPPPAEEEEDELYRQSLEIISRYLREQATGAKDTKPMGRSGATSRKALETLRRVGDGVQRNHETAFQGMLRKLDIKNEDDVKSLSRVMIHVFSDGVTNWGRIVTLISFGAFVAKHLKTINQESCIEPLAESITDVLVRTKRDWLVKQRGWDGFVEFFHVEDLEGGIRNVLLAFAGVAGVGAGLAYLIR
In general terms: In qPCR the cycle at which signal appears reflects the starting amount.

The test system of assay [3] is drug-resistant cell lines of Table 3. Kind of assay: Cell line growth retardation assay, resistant cohort. In kind it is cell-based, Human. The following applies: Homo sapiens, 144 h; arithmetic mean of IC50s over the resistant cohort of Table 3, 6 days growth; read-out: AvgRes IC50. Here is the method:
as §1, §2

With `CC(=O)N1CCN(c2ccc(-c3nccc(COc4ccccc4C[C@@H](Oc4nsc5cnc(C6CCC6)c(-c6ccc(OCCN7CCN(C)CC7)c(Cl)c6C)c45)C(=O)O)n3)cc2)CC1` (atropisomer, axis not shown) [Compound 119], in assay [1], the IC50 was at most 1000 nM and the “Fold Diff” value is listed as “+ (“+” represents a fold difference of 10 or more)”. Further, the Kd in assay [2] was at most 100 nM. For the same compound, in assay [3], the IC50 was above 5000 nM.
On the same counts, the results for `COc1ccccc1-c1nccc(COc2ccccc2C[C@@H](Oc2nsc3cnc(-c4cnc(C5CC5)o4)c(-c4ccc(OCCN5CCN(C)CC5)c(Cl)c4C)c23)C(=O)O)n1` (atropisomer, axis not shown) [Compound 78] are 1000 to 5000 nM, “− (“−” represents a fold difference less than 10)”, at most 100 nM and above 5000 nM.
As for `Cc1c(Cl)c2cc(Cl)cnc2n1-c1cc(CC2CCC2)c2c(O[C@H](Cc3ccccc3OCc3ccnn3CC(F)(F)F)C(=O)O)nsc2c1` [Compound 101], the IC50 in assay [1] and in assay [3] was above 5000 nM throughout. Besides, the “Fold Diff” value in assay [1] is on record as “− (“−” represents a fold difference less than 10)”. The Kd in assay [2] was above 1500 nM.
As for `COc1cccc(-c2ncc3snc(O[C@H](Cc4ccccc4OCc4ccnc(-c5ccccc5OC)n4)C(=O)O)c3c2-c2ccc(OCC3CCCN3C)c(Cl)c2C)c1` (some centres unmarked) [Compound 48], in assay [1], the IC50 was at most 1000 nM and the “Fold Diff” value is “+ (“+” represents a fold difference of 10 or more)”. Moreover, in assay [3], the IC50 is above 5000 nM.
In the case of `COc1ccccc1-c1nccc(COc2ccccc2C[C@@H](Oc2nsc3cnc(-c4cccc(C#N)c4)c(-c4ccc(OCCN5CCN(C)CC5)c(Cl)c4C)c23)C(=O)O)n1` (atropisomer, axis not shown) [Compound 80], in assay [1], the IC50 was at most 1000 nM and the “Fold Diff” value is listed as “+ (“+” represents a fold difference of 10 or more)”. Further, the Kd in assay [2] is at most 100 nM. Also, the IC50 in assay [3] was above 5000 nM.
Turning to `COc1ncccc1-c1nccc(COc2ccccc2C[C@@H](Oc2nsc3cnc(-c4cccc(F)c4)c(-c4ccc(OCCN5CCN(C)CC5)c(Cl)c4C)c23)C(=O)O)n1` (atropisomer, axis not shown) [Compound 64], in assay [1], the IC50 is above 5000 nM and the “Fold Diff” value is “− (“−” represents a fold difference less than 10)”. The Kd in assay [2] lay in the range of 101 to 500 nM. Moreover, the IC50 in assay [3] was above 5000 nM.
Regarding `Cc1c(-c2c(C3CCC3)ncc3snc(O[C@H](Cc4ccccc4OCc4ccnc(-c5cccc(-c6ccn(C)n6)c5)n4)C(=O)O)c23)ccc(OCCN2CCN(C)CC2)c1Cl` (atropisomer, axis not shown) [Compound 121], the values for the IC50 in assay [1] and in assay [3] were at most 1000 nM and above 5000 nM, respectively. Further, the “Fold Diff” value in assay [1] is listed as “+ (“+” represents a fold difference of 10 or more)”.
Turning to `COc1ccccc1-c1nccc(COc2ccccc2C[C@@H](Oc2nsc3cnc(-c4cc(F)c(F)c(F)c4)c(-c4ccc(OCCN5CCN(C)CC5)c(Cl)c4C)c23)C(=O)O)n1` (atropisomer, axis not shown) [Compound 84], in assay [1], the IC50 was at most 1000 nM and the “Fold Diff” value was “+ (“+” represents a fold difference of 10 or more)”. In addition, the dissociation constant (Kd) in assay [2] is at most 100 nM. Moreover, in assay [3], the IC50 was above 5000 nM.
With `Cc1c(-c2c(C3CCC3)ncc3snc(O[C@H](Cc4ccccc4OCc4ccnc(C5CCOCC5)n4)C(=O)O)c23)ccc(OCCN2CCN(C)CC2)c1Cl` (atropisomer, axis not shown) [Compound 111], in assay [1], the IC50 is at most 1000 nM and the “Fold Diff” value was “+ (“+” represents a fold difference of 10 or more)”. Also, the dissociation constant Kd in assay [2] is at most 100 nM. For the same compound, the IC50 in assay [3] was above 5000 nM.
Take `COc1cccc(-c2ncc3snc(O[C@H](Cc4ccccc4OCc4ccnc(N5CCCC(C)(C)C5)n4)C(=O)O)c3c2-c2ccc(OCCN3CCN(C)CC3)c(Cl)c2C)c1` (atropisomer, axis not shown) [Compound 62]: in assay [1], the half-maximal inhibitory concentration (IC50) was in the range of 1000 to 5000 nM and the “Fold Diff” value was “− (“−” represents a fold difference less than 10)”. Besides, the Kd in assay [2] lay in the range of 501 to 1500 nM. In assay [3], the IC50 is above 5000 nM.
Turning to `COc1cc(-c2ncc3snc(O[C@H](Cc4ccccc4OCc4ccnc(-c5ccccc5OC)n4)C(=O)O)c3c2-c2ccc(OCCN3CCN(C)CC3)c(Cl)c2C)ccc1F` (atropisomer, axis not shown) [Compound 37], in assay [1], the IC50 is above 5000 nM and the “Fold Diff” value is “− (“−” represents a fold difference less than 10)”. Moreover, the Kd in assay [2] was in the range of 101 to 500 nM. Further, the IC50 in assay [3] was above 5000 nM.
For the compound `Cc1c(-c2cc(-c3nccc4cc(Cl)ccc34)cc3snc(O[C@H](Cc4ccccc4OCc4ccnn4CC(F)(F)F)C(=O)O)c23)ccc(OCCN2CCN(C)CC2)c1Cl` [Compound 95], in assay [1], the IC50 is above 5000 nM and the “Fold Diff” value was “− (“−” represents a fold difference less than 10)”. Moreover, the Kd in assay [2] is above 1500 nM. Also, the IC50 in assay [3] is above 5000 nM.
With `COc1ccccc1-c1nccc(COc2ccccc2C[C@@H](Oc2nsc3cnc(-c4ccc(F)c(F)c4)c(-c4ccc(OCCN5CCN(C)CC5)c(Cl)c4C)c23)C(=O)O)n1` (atropisomer, axis not shown) [Compound 85], in assay [1], the IC50 is at most 1000 nM and the “Fold Diff” value was “+ (“+” represents a fold difference of 10 or more)”. Besides, the Kd in assay [2] was at most 100 nM. For the same compound, the IC50 in assay [3] was above 5000 nM.
For the compound `COc1cccc(-c2ncc3snc(O[C@H](Cc4ccccc4OCc4ccnc(OCCCC(F)(F)F)n4)C(=O)O)c3c2-c2ccc(OCCN3CCN(C)CC3)c(Cl)c2C)c1` [Compound 59], in assay [1], the IC50 was in the range of 1000 to 5000 nM and the “Fold Diff” value is on record as “− (“−” represents a fold difference less than 10)”. In addition, the Kd in assay [2] was 101 to 500 nM. Moreover, in assay [3], the IC50 is above 5000 nM.
On to `Cc1c(-c2c(C3CCC3)ncc3snc(O[C@H](Cc4ccccc4OCc4ccnc(-c5ccc(C(=O)N6CCC6)cc5)n4)C(=O)O)c23)ccc(OCCN2CCN(C)CC2)c1Cl` (atropisomer, axis not shown) [Compound 122], for which, in assay [1], the IC50 is at most 1000 nM and the “Fold Diff” value was “+ (“+” represents a fold difference of 10 or more)”. The IC50 in assay [3] was above 5000 nM.
For `Cc1c(-c2c(-c3ccc4sccc4c3)ncc3snc(O[C@H](Cc4ccccc4OCc4ccnn4CC(F)(F)F)C(=O)O)c23)ccc(OCCN2CCN(C)CC2)c1Cl` (atropisomer, axis not shown) [Compound 8], in assay [2], the Kd is above 1500 nM.
Take `Cc1c(-c2c(C3CCC3)ncc3snc(O[C@H](Cc4ccccc4OCc4ccnc(-c5ccc(N6CCOCC6)cc5)n4)C(=O)O)c23)ccc(OCCN2CCN(C)CC2)c1Cl` (atropisomer, axis not shown) [Compound 123]: the values for the concentration for half-maximal inhibition (IC50) in assay [1] and in assay [3] were at most 1000 nM and above 5000 nM, respectively. Besides, the “Fold Diff” value in assay [1] is “+ (“+” represents a fold difference of 10 or more)”.
In the case of `CCOC(=O)[C@@H](Cc1ccccc1OCc1ccnc(-c2ccccc2OC)n1)Oc1nsc2cnc(C3CCC3)c(-c3ccc(OCCN4CCN(C)CC4)c(Cl)c3C)c12` [Compound 103], the Kd in assay [2] is above 1500 nM.
Consider `COc1ccccc1-c1nccc(COc2ccccc2C[C@@H](Oc2nsc3cnc(C4CCC4)c(-c4ccc(OCCN5CCN(C)CC5)c(Cl)c4C)c23)C(=O)CCc2oc(=O)oc2C)n1` (atropisomer, axis not shown) [Compound 120], for which, in assay [1], the concentration for half-maximal inhibition (IC50) is at most 1000 nM and the “Fold Diff” value is reported as “+ (“+” represents a fold difference of 10 or more)”. For the same compound, the IC50 in assay [3] is above 5000 nM.

One may read the IC50 as the midpoint of a concentration-inhibition curve. As usually defined, the Kd is the concentration at which binding is half-saturated.
